Test results taken from patent publication US20240262817A1, “QUINAZOLINE DERIVATIVES TARGETING R(CCUG) REPEATS IN MYOTONIC DYSTROPHY TYPE 2” (University of Florida Research Foundation, Incorporated, priority 2021, published 2024).
Entries after “also recorded” stand apart in the source; their conditions may differ.

Key:
[1] = test system: CNBP intron 1 in DM2 patient-derived fibroblasts; assay: CNBP intron 1 abundance via RT-qPCR in DM2 fibroblasts; type: cell-based; parameters: dose or concentration left out as unconfirmed
Procedure: (§1) Cell lines and cell culture: Compounds were tested in two cell lines: (i) DM2 patient-derived fibroblasts (generous gift from University of Florida, Center for NeuroGenetics) and (ii) fibroblasts from a healthy donor (wild-type; WT GM07492; Coriell Institute). Cells were maintained at 37° ° C. with 5% CO2. DM2 fibroblasts were cultured in DMEM/high glucose (HyClone) supplemented with 20% FBS (Sigma) and 1% Antibiotic-Antimycotic solution (Corning). Wild-type fibroblasts were cultured in MEM (Corning) supplemented with 10% FBS, 1% Glutagro (Corning), and 1% Antibiotic-Antimycotic solution.
(§2) Evaluation of CNBP abundance via RT-qPCR: CNBP abundance was evaluated as previously described.^10 Briefly, cells were grown in 6-well plates and treated with the desired compound in growth medium at 40% confluency. […] Approximately 1 μg of total RNA was reverse transcribed using a qScript cDNA synthesis kit (20 μL total reaction volume, Quanta BioSciences); 2 μL of the reverse transcription (RT) reaction was used for each primer pair (Table S1) for quantitative PCR with SYBR Green Master Mix, performed on a QuantStudio 5, 384-well Block Real-Time PCR System (Applied Biosciences). Relative abundance was determined by normalizing to GAPDH (n=6 replicates per concentration; 2 independent experiments).

[2] = test system: r(CCUG)exp-MBNL1 nuclear foci in DM2 patient-derived fibroblasts; assay: Nuclear foci by RNA FISH and MBNL1 immunofluorescence; type: cell-based; parameters: dose or concentration left out as unconfirmed
Procedure: as §1
Evaluation of nuclear foci via RNA fluorescence in situ hybridization (FISH): RNA FISH was used to determine the small molecules' effects on the number of nuclear foci as previously described.^10 The number of foci were counted in 40 nuclei/replicate (120 total nuclei counted); n=3 replicates; 1 independent experiment.

[3] = target: r(CCUG)12; assay: Microscale thermophoresis (MST) affinity for r(CCUG)12; type: binding; details: read-out: Kd,app for r(CCUG)12
Procedure: (§3) Affinity measurements: Binding affinity measurements were performed via microscale thermophoresis (MST) on a Monolith NT.115 system (NanoTemperTechnologies) with Cy5-labeled (CCUG)12 (SEQ ID NO: 15) (5′-Cy5-GCG(CCUG)12CGC. SEQ ID NO:13; Dharmacon) and Cy5-labeled base pair control (BP; 5′-Cy5-GCG(CCUG)(GCAG)5CGC, SEQ ID NO:14; Dharmacon), which were deprotected according to the manufacturer's protocol and then desalted using a PD-10 column (GE LifeSciences) per the manufacturer's recommended procedure. RNA (5 nM) was prepared in 8 mM Na2HPO4, 185 mM NaCl, 1 mM EDTA and folded by heating at 60° C. for 5 min and slowly cooling to room temperature. Compound 1:1 dilution was prepared using 1×MST Buffer (8 mM Na2HPO4, 185 mM NaCl, 1 mM EDTA) and 0.1% (v/v) Tween-20 was added. After cooling the RNA solution was added to the compound solution (0.05% (v/v) Tween-20 final concentration). Samples were incubated for 30 min at room temperature and then loaded into standard capillaries (NanoTemper Technologies). […] Fluorescence was detected using excitation wavelengths of 605-645 nm and emission wavelengths of 680-685 nm. The resulting data were analyzed by thermophoresis analysis and fitted using a quadratic binding equation in the MST analysis software (NanoTemper Technologies). Dissociation constants were then determined using equation 3. […]

[4] = test system: IR exon 11 alternative splicing in DM2 patient-derived fibroblasts; assay: Rescue of IR exon 11 splicing via RT-PCR in DM2 fibroblasts; type: cell-based
Procedure: as §1
(§4) Evaluation of pre-mRNA splicing via RT-PCR: Pre-mRNA splicing was analyzed as previously described.^10 Briefly, cells were grown in 6-well plates and treated with the desired compound in growth medium at ˜40% confluency. After 48 h, the cells were lysed, and total RNA was harvested using a Zymo Quick RNA Miniprep Kit. Approximately 1 μg of total RNA was reverse transcribed using a qScript cDNA synthesis kit (20 μL of total reaction volume, Quanta BioSciences); 2 μL of the RT reaction was used for PCR using GoTaq DNA polymerase (Promega). RT-PCR products were observed after 35 cycles of 95° C. for 30 s, 58° C. for 30s, 72 °C for 1 min, and a final extension at 72° C. for 5 min. Products were separated on a 2% agarose gel (110 V for 1 h in 13TBE buffer), visualized by staining with ethidium bromide, and imaged using a Typhoon 9410 variable mode imager. Gels were quantified using ImageJ. Percent rescue was calculated by dividing the difference between treated and untreated DM2 samples by the difference between untreated DM2 and WT samples (Equation 2).

[5] = test system: CNBP mature mRNA in DM2 patient-derived fibroblasts; assay: CNBP mature mRNA levels via RT-qPCR in DM2 fibroblasts; type: cell-based
Procedure: as §1, §2

[6] = test system: CNBP intron 1 in wild-type fibroblasts; assay: CNBP intron 1 levels via RT-qPCR in wild-type fibroblasts; type: cell-based
Procedure: as §1, §2

[7] = test system: MAP4K4 exon 22a splicing (NOVA-dependent) in DM2 fibroblasts; assay: MAP4K4 exon 22a splicing via RT-PCR in DM2 fibroblasts; type: cell-based
Procedure: as §1
as §4, with “RT-PCR products were observed after 35 cycles of 95° C. for 30 s, 58° C. for 30s, 72 °C for 1 min, and a final extension at 72° C. for 5 min. Products were separated on a 2% agarose gel (110 V for 1 h in 13TBE buffer), visualized by staining with ethidium bromide, and imaged using a Typhoon 9410 variable mode imager.” left out

[8] = test system: DM2 patient-derived fibroblasts; assay: Cell viability by CellTiter-Glo; type: cell-based
Procedure: as §1
Evaluation of cell viability: Compound toxicity in DM2 fibroblasts was evaluated using a CellTiter-Glo Kit (Promega) as described in the manufacturer's protocol. Briefly, after 48 h treatment in 96-wells plates, 100 μL of the CellTiter-Glo reagent was added to each well. The plate was then incubated at room temperature for 10 min, and luminescence was measured using BioTek FLX-800 luminescence plate reader (n=6 replicates; 1 independent experiment).

[9] = test system: IR exon 11 inclusion in wild-type fibroblasts; assay: IR exon 11 inclusion via RT-PCR in wild-type fibroblasts; type: cell-based
Procedure: as §1
as §4, with “RT-PCR products were observed after 35 cycles of 95° C. for 30 s, 58° C. for 30s, 72 °C for 1 min, and a final extension at 72° C. for 5 min. Products were separated on a 2% agarose gel (110 V for 1 h in 13TBE buffer), visualized by staining with ethidium bromide, and imaged using a Typhoon 9410 variable mode imager.” left out

[10] = target: base-paired RNA that does not contain internal loops; assay: Microscale thermophoresis (MST) affinity for base pair control RNA; type: binding
Procedure: as §3

Cc1ccc2nc(Nc3ccc4nc(C)sc4c3)nc(NCCCO)c2c1 [Compound 63, 3-((6-methyl-2-((2-methylbenzo[d]thiazol-6-yl)amino)quinazolin-4-yl)amino)propan-1-ol]
abundance of CNBP intron 1 [1]: significantly reduced
reduction of number of nuclear foci per cell ([2]; 63 vs untreated): ~30%
number of r(CCUG)exp-MBNL1 nuclear foci per cell ([2]; untreated 7±1): 5±0.5
Kd [3]: 0.192 ± 0.02 µM
rescue of IR exon 11 splicing ([4]; at 1 μM): ~30%
rescue of IR splicing ([4]; at 1 μM dose, p=0.026): 33±5
improvement of IR splicing ([4]; at 5 μM): significantly improved IR splicing
levels of CNBP mature mRNA [5]: did not affect
effect on CNBP intron 1 levels [6]: no effect
effect on MAP4K4 exon 22a splicing [7]: did not affect; also recorded: does not affect
toxicity as stated in legend of FIG. 3C ([8]; DM2 fibroblasts): non-toxic
toxicity in DM2 patient-derived fibroblasts ([8]; at 5 μM): no toxicity
effect on IR exon 11 inclusion [9]: did not affect; also recorded: no effect
Kd [10]: > 20 µM
binding to base-paired RNA that does not contain internal loops [10]: no binding was observed
